From article PMC7900183 (2021)

Legend:
[1] = test system: PW17Ext (DNA, G4) GAGGAGGAGGAGGAGAGGGTAGGGCGGGTTGGG; test: fluorescence melting; conditions: 150 mM Na+, 10 mM K+; 50 mM Tris, pH 7.4; complex more stable than without K+
[2] = test system: Apt5.13-36 (DNA, aptamer) GCTATTAGGAGGTGGGATGCGTCA; test: fluorescence enhancement; conditions: 150 mM Na+; less fluorescent than Apt5; 1 µM DNA, 5 µM ThT; 50 mM Tris, pH 7.4
[3] = test system: Apt5.1-24 (DNA, aptamer) GCGTAGATCGAGGCTATTAGGAGG; test: fluorescence enhancement; conditions: 150 mM Na+; less fluorescent than Apt5; 1 µM DNA, 5 µM ThT; 50 mM Tris, pH 7.4
[4] = test system: Apt2 (DNA, aptamer) GACCGGAGGGGCATCAGCTGTCCGTGAGGTTGCCGCGAG; test: fluorescence enhancement; conditions: 150 mM Na+; 13x enhancement; 1 µM DNA, 5 µM ThT; 50 mM Tris, pH 7.4
[5] = test system: Apt5.17-40 (DNA, aptamer) TTAGGAGGTGGGATGCGTCAGGGC; test: fluorescence enhancement; conditions: 150 mM Na+; less fluorescent than Apt5; 1 µM DNA, 5 µM ThT; 50 mM Tris, pH 7.4
[6] = test system: ThT.2-2 (DNA, aptamer) GACGACGACACAGGATTAATCTTATTAGTCGTC; test: fluorescence enhancement; conditions: less fluorescent than Apt5.9-32; several concentrations
[7] = test system: Apt5.5-28 (DNA, aptamer) AGATCGAGGCTATTAGGAGGTGGG; test: fluorescence enhancement; conditions: 150 mM Na+; less fluorescent than Apt5; 1 µM DNA, 5 µM ThT; 50 mM Tris, pH 7.4
[8] = test system: Primer-215 (DNA, single strand) ATGACCTATGAATTGACAGAC; test: fluorescence enhancement; conditions: no fluorescence; 5 µM ThT, 1 µM oligonucleotide; text says miR-215 (Primer-215)
[9] = test system: Apt5 (DNA, aptamer) GCGTAGATCGAGGCTATTAGGAGGTGGGATGCGTCAGGGC; test: fluorescence enhancement; conditions: 150 mM Na+; 61x enhancement; 1 µM DNA, 5 µM ThT; 50 mM Tris, pH 7.4
[10] = test system: Apt4 (DNA, aptamer) GACCGGAGGGGCATCAGCTGTCCGTGAGGTTGCCGCGAGT; test: fluorescence enhancement; conditions: 150 mM Na+; 14x enhancement; 1 µM DNA, 5 µM ThT; 50 mM Tris, pH 7.4
[11] = test system: Apt5.9-32 (DNA, aptamer) CGAGGCTATTAGGAGGTGGGATGC; test: fluorescence titration, 510 nm; conditions: 150 mM Na+; 50 mM Tris, pH 7.4; 1 µM ThT, aptamer 2.5-50 µM; mean of three
[12] = test system: Apt3 (DNA, aptamer) GCACGTCCAGGACGGGGGAGCGGTGCTAGTGTCTGGCAGG; test: fluorescence enhancement; conditions: 150 mM Na+; 20x enhancement; 1 µM DNA, 5 µM ThT; 50 mM Tris, pH 7.4
[13] = test system: Apt1 (DNA, aptamer) TCGCGTGTGCAGAGGCGAGTAGGTGGGAGATCTGTCTGGG; test: fluorescence enhancement; conditions: 150 mM Na+; 9x enhancement; 1 µM DNA, 5 µM ThT; 50 mM Tris, pH 7.4

binding [1]: yes
binding [2]: weak
binding [3]: weak
binding [4]: yes
binding [5]: weak
binding [6]: yes
binding [7]: weak
binding [8]: no
binding [9]: yes
binding [10]: yes
dissociation constant [11]: 6 ± 2 µM
binding [12]: yes
binding [13]: yes
Structure (SMILES): Cc1ccc2c(c1)sc(-c1ccc(N(C)C)cc1)[n+]2C
